These results are taken from ChEMBL document CHEMBL3217673, “Synthesis of cyanine dyes and investigation of their in vitro antiprotozoal activities” (Medchemcomm, 2012).

Series [1] can be described thus: Selectivity index, ratio of IC50 for rat L6 cells to IC50 for Trypanosoma brucei rhodesiense STIB900. In kind it is toxicity, cell-based. As to conditions: read-out: Ratio IC50.
Series [2] can be described thus: Selectivity index, ratio of IC50 for rat L6 cells to IC50 for chloroquine and pyrimethamine-resistant Plasmodium falciparum K1. The class given is toxicity, cell-based. As to conditions: read-out: Ratio IC50.
A further series relates to Leishmania donovani. The series is described as follows: Antiprotozoal activity against Leishmania donovani MHOMET-67/L82. In kind it is functional, organism-based.
The nature of series [3]: Selectivity index, ratio of IC50 for rat L6 cells to IC50 for Trypanosoma cruzi Tulahuen C2C4. As to conditions: read-out: Ratio IC50. In kind it is toxicity, cell-based.
The test system of another series is L6. Description: Cytotoxicity against rat L6 cells. The class given is cell-based.
Series [4] relates to Trypanosoma brucei rhodesiense. Description: Antiprotozoal activity against Trypanosoma brucei rhodesiense STIB900. In kind it is functional, organism-based.
The test system of the next series is Trypanosoma cruzi. Description: Antiprotozoal activity against Trypanosoma cruzi Tulahuen C2C4. The class given is functional, organism-based.
In a further series the test system is Plasmodium falciparum. Description: Antiprotozoal activity against chloroquine and pyrimethamine-resistant Plasmodium falciparum K1. In kind it is functional, organism-based.
A short description of series [5]: Selectivity index, ratio of IC50 for rat L6 cells to IC50 for Leishmania donovani MHOMET-67/L82. The note with it: read-out: Ratio IC50. The class given is toxicity, cell-based.

Each structure is given as a SMILES string.

As a reminder, the IC50 is the concentration that inhibits the measured activity by half. Low readings indicate higher potency, high ones lower potency.

Turning to `CN1/C(=C/C=C/c2sc3ccc(F)cc3[n+]2C)Sc2ccc(F)cc21`, the selectivity ratio in series [1] worked out at 2.7; in series [2] it was 477; in series [3], 0.2; in series [5], 35.8. Also, the IC50 in the series on Leishmania donovani came to 20 nM; in the series on L6, 699 nM; in series [4], 262 nM; with Trypanosoma cruzi it was 2910 nM; with Plasmodium falciparum, 2 nM.

Regarding `CCN1/C(=C/C=C/c2sc3ccc(F)cc3[n+]2CC)Sc2ccc(F)cc21`, the selectivity ratio was found to be 1.1 in series [1], 371 in [2], 0.7 in series [3] and 30.9 in [5]. Moreover, the IC50 in the series with Leishmania donovani was determined as 28 nM; in the series on L6, 849 nM; in [4], 769 nM; in the series with Trypanosoma cruzi it was 1170 nM; with Plasmodium falciparum it was 2 nM.

Turning to `Cn1/c(=N/C=C/c2sc3ccccc3[n+]2C)sc2ccccc21`, the selectivity ratio in [1] is 128; in series [2], 340; in series [3] it was 170; in series [5] it was 255. Moreover, the concentration for half-maximal inhibition (IC50) in the series on Leishmania donovani stood at 11 nM; with L6, 2730 nM; in series [4], 21 nM; with Trypanosoma cruzi, 16 nM; in the series on Plasmodium falciparum it was 8 nM.

On to `Cn1/c(=N/C=C/c2sc3ccc(Cl)cc3[n+]2C)sc2ccccc21`, for which the selectivity ratio in series [1] turned out to be 66.3; in series [2], 132; in series [3] it was 1.3; in series [5], 88.3. Also, the IC50 with Leishmania donovani amounted to 7 nM; in the series on L6, 649 nM; in [4], 10 nM; with Trypanosoma cruzi, 509 nM; with Plasmodium falciparum it was 5 nM.

Turning to `Cn1/c(=N/C=C/c2sc3ccc(F)cc3[n+]2C)sc2ccccc21`, the selectivity ratio is 15.8 in [1], 153 in series [2], 9 in series [3] and 191 in series [5]. Besides, the IC50 in the series on Leishmania donovani was 31 nM; with L6 it was 5840 nM; in series [4], 370 nM; with Trypanosoma cruzi, 648 nM; with Plasmodium falciparum, 38 nM.

Consider `Cn1/c(=N\N/C=C/c2sc3ccccc3[n+]2C)sc2ccccc21`, for which the selectivity ratio in series [1] was found to be 5.5; in series [2], 3; in series [3], 1.7; in series [5], 1.6. In addition, the IC50 in the series on Leishmania donovani is 13100 nM; with L6, 21100 nM; in series [4], 3830 nM; in the series with Trypanosoma cruzi, 12400 nM; in the series with Plasmodium falciparum, 7020 nM.

With `Cn1/c(=N\N/C=C/c2sc3ccc(Cl)cc3[n+]2C)sc2ccccc21`, the selectivity ratio in series [1] was found to be 3.6; in series [2], 4.2; in series [3] it was 1; in series [5] it was 1.3. Also, the half-maximal inhibitory concentration (IC50) in the series with Leishmania donovani was determined as 8340 nM; in the series on L6 it was 10800 nM; in series [4], 2970 nM; in the series with Trypanosoma cruzi it was 11400 nM; with Plasmodium falciparum it was 2600 nM.

On to `Cn1/c(=N\N/C=C/c2sc3ccc(F)cc3[n+]2C)sc2ccccc21`, for which the selectivity ratio in [1] is 3.5; in series [2], 2.5; in series [3], 1.3; in [5] it was 1.5. For the same compound, the 50% inhibitory concentration (IC50) in the series on Leishmania donovani is 10200 nM; with L6, 15500 nM; in series [4], 4450 nM; with Trypanosoma cruzi, 11800 nM; in the series with Plasmodium falciparum it was 6140 nM.

As for `CN1/C(=C/C=C/C=C/c2sc3ccccc3[n+]2C)Sc2ccccc21`, the selectivity ratio in series [1] was 137; in series [2], 13.5; in series [3] it was 29.9; in [5], 12.7. Besides, the IC50 in the series on Leishmania donovani came out at 140 nM; in the series with L6, 1790 nM; in series [4] it was 13 nM; in the series with Trypanosoma cruzi it was 60 nM; in the series on Plasmodium falciparum, 133 nM.

For the compound `CN1/C(=C/C=C/C=C/c2sc3ccc(Cl)cc3[n+]2C)Sc2ccc(Cl)cc21`, the selectivity ratio in series [1] came out at 106; in series [2], 13.9; in [3] it was 0.3; in series [5], 11.8. Besides, the 50% inhibitory concentration (IC50) in the series with Leishmania donovani stood at 75 nM; with L6, 876 nM; in [4], 8 nM; with Trypanosoma cruzi, 2630 nM; with Plasmodium falciparum it was 63 nM.

On to `CN1/C(=C/C=C/C=C/c2sc3ccc(F)cc3[n+]2C)Sc2ccc(F)cc21`, for which the selectivity ratio amounted to 1190 in series [1], 9.2 in series [2], 1.1 in series [3] and 11.1 in [5]. For the same compound, the half-maximal inhibitory concentration (IC50) with Leishmania donovani was 188 nM; in the series on L6, 2080 nM; in series [4], 2 nM; in the series with Trypanosoma cruzi, 1960 nM; in the series with Plasmodium falciparum it was 228 nM.
